Source: US20230017045A1, “PYRIDINE AND PYRIMIDINE CARBOXYLATE HERBICIDES AND METHODS OF USE THEREOF” (Dow AgroSciences LLC, priority 2017, published 2023)
Like-named read-outs stand apart in the source and are kept apart here.

System: test plant species
Assay: Post-emergent herbicidal activity test (greenhouse, foliar spray, visual growth reduction)
Type: in vivo
Conditions: post-emergence, 336 h, 140 g ai/ha
Outline: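 Visual percent injury (0-100) rated 14 d after treatment, relative to nontreated and solvent-blank plants. Test plants at first or second true leaf stage received an overhead track-sprayer application at 187 L/ha. Compounds were formulated in aqueous acetone/DMSO carrier containing crop oil concentrate and X-77 surfactant.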

[1] = ALOMY: blackgrass (Alopecurus myosuroides), 14 days after application, read-out: Visual Growth Reduction (%) 14 Days After Application, ALOMY
[2] = AMARE: redroot pigweed (Amaranthus retroflexus), 14 days after application, read-out: Visual Growth Reduction (%) 14 Days After Application, AMARE
[3] = AVEFA: wild oat (Avena fatua), 14 days after application, read-out: Visual Growth Reduction (%) 14 Days After Application, AVEFA
[4] = CHEAL: lambsquarters (Chenopodium album), 14 days after application, read-out: Visual Growth Reduction (%) 14 Days After Application, CHEAL
[5] = CIRAR: canada thistle (Cirsium arvense), 14 days after application, read-out: Visual Growth Reduction (%) 14 Days After Application, CIRAR
[6] = CYPES: yellow nutsedge (Cyperus esculentus), 14 days after application, read-out: Visual Growth Reduction (%) 14 Days After Application, CYPES
[7] = DIGSA: crabgrass (Digitaria sanguinalis), 14 days after application, read-out: Visual Growth Reduction (%) 14 Days After Application, DIGSA
[8] = ECHCG: barnyardgrass (Echinochloa crus-galli), 14 days after application, read-out: Visual Growth Reduction (%) 14 Days After Application, ECHCG
[9] = IPOHE: ivy-leaf morning glory (Ipomoea hederacea), 14 days after application, read-out: Visual Growth Reduction (%) 14 Days After Application, IPOHE
[10] = KCHSC: kochia (Bassia scoparia), 14 days after application, read-out: Visual Growth Reduction (%) 14 Days After Application, KCHSC
[11] = ORYSA: rice (Oryza sativa), 14 days after application, read-out: Visual Growth Reduction (%) 14 Days After Application, ORYSA
[12] = SETFA: giant foxtail (Setaria faberi), 14 days after application, read-out: Visual Growth Reduction (%) 14 Days After Application, SETFA
[13] = SORVU: grain sorghum (Sorghum vulgare), 14 days after application, read-out: Visual Growth Reduction (%) 14 Days After Application, SORVU
[14] = STEME: common chickweed (Stellaria media), 14 days after application, read-out: Visual Growth Reduction (%) 14 Days After Application, STEME
[15] = TRZAS: wheat, spring (Triticum aestivum), 14 days after application, read-out: Visual Growth Reduction (%) 14 Days After Application, TRZAS
[16] = blackgrass (Alopecurus myosuroides), 14 Days After Application, read-out: Visual Growth Reduction (%) ALOMY
[17] = canada thistle (Cirsium arvense), 14 Days After Application, read-out: Visual Growth Reduction (%) CIRAR
[18] = crabgrass (Digitaria sanguinalis), 14 Days After Application, read-out: Visual Growth Reduction (%) DIGSA
[19] = lambsquarters (Chenopodium album), 14 Days After Application, read-out: Visual Growth Reduction (%) CHEAL
[20] = redroot pigweed (Amaranthus retroflexus), 14 Days After Application, read-out: Visual Growth Reduction (%) AMARE
[21] = wild oat (Avena fatua), 14 Days After Application, read-out: Visual Growth Reduction (%) AVEFA
[22] = yellow nutsedge (Cyperus esculentus), 14 Days After Application, read-out: Visual Growth Reduction (%) CYPES

| SMILES | pest or weed control at 140 g/ha [1] | pest or weed control at 140 g/ha [2] | pest or weed control at 140 g/ha [3] | pest or weed control at 140 g/ha [4] | pest or weed control at 140 g/ha [5] | pest or weed control at 140 g/ha [6] | pest or weed control at 140 g/ha [7] | pest or weed control at 140 g/ha [8] | pest or weed control at 140 g/ha [9] | pest or weed control at 140 g/ha [10] | pest or weed control at 140 g/ha [11] | pest or weed control at 140 g/ha [12] | pest or weed control at 140 g/ha [13] | pest or weed control at 140 g/ha [14] | pest or weed control at 140 g/ha [15] | pest or weed control at 140 g/ha [16] | pest or weed control at 140 g/ha [17] | pest or weed control at 140 g/ha [18] | pest or weed control at 140 g/ha [19] | pest or weed control at 140 g/ha [20] | also measured |
| --- | --- | --- | --- | --- | --- | --- | --- | --- | --- | --- | --- | --- | --- | --- | --- | --- | --- | --- | --- | --- | --- |
| CO/N=C/c1c(C(F)(F)F)ccc(-c2ccc(Cl)c(C(=O)OC)n2)c1Cl [F141, Methyl (E)-3-chloro-6-(2-chloro-3-((methoxyimino)methyl)-4-(trifluoromethyl)phenyl)picolinate] | 0 to 29% | 75 to 84% | 0 to 29% | 0 to 29% | 0 to 29% | 0 to 29% | 60 to 74% | 0 to 29% | 0 to 29% | 60 to 74% | 0 to 29% | 0 to 29% | 0 to 29% | 0 to 29% | 0 to 29% |  |  |  |  |  |  |
| COC(=O)c1nc(-c2ccc(C(F)(F)F)cc2F)c(F)cc1F [F375, Methyl 3,5-difluoro-6-(2-fluoro-4-(trifluoromethyl)phenyl)picolinate] |  |  |  |  |  |  |  | 85 to 94% | 95 to 100% | 60 to 74% | 0 to 29% | 85 to 94% | 85 to 94% | 0 to 29% | 75 to 84% | 45 to 59% | 85 to 94% | 85 to 94% | 85 to 94% | 95 to 100% | pest or weed control at 140 g/ha [21]: 60 to 74%; pest or weed control at 140 g/ha [22]: 0 to 29% |
| COC(=O)c1nc(-c2ccc(C(F)(F)F)cc2Cl)cc(Br)c1Cl [F41, methyl 4-bromo-3-chloro-6-(2-chloro-4-(trifluoromethyl)phenyl)picolinate] | 0 to 29% | 0 to 29% | 0 to 29% | 0 to 29% | 0 to 29% | 0 to 29% | 0 to 29% | 0 to 29% | 0 to 29% | 0 to 29% | 0 to 29% | 0 to 29% | 0 to 29% | 0 to 29% | 0 to 29% |  |  |  |  |  |  |
| COC(=O)c1nc(-c2ccc(C(F)(F)F)cc2F)ccc1Cl [F12, Methyl 3-chloro-6-(2-fluoro-4-(trifluoromethyl)phenyl)picolinate] | 0 to 29% | 85 to 94% | 0 to 29% | 95 to 100% | 60 to 74% | 60 to 74% | 75 to 84% |  |  |  |  |  |  |  |  |  |  |  |  |  | pest or weed control at 140 g/ha (barnyardgrass (Echinochloa crus-galli), 14 Days After Application, read-out: Visual Growth Reduction (%) ECHCG): 0 to 29%; pest or weed control at 140 g/ha (common chickweed (Stellaria media), 14 Days After Application, read-out: Visual Growth Reduction (%) STEME): 0 to 29%; pest or weed control at 140 g/ha (giant foxtail (Setaria faberi), 14 Days After Application, read-out: Visual Growth Reduction (%) SETFA): 0 to 29%; pest or weed control at 140 g/ha (ivy-leaf morning glory (Ipomoea hederacea), 14 Days After Application, read-out: Visual Growth Reduction (%) IPOHE): 95 to 100%; pest or weed control at 140 g/ha (johnsongrass (Sorghum vulgare), 14 Days After Application, read-out: Visual Growth Reduction (%) SORVU): 75 to 84%; pest or weed control at 140 g/ha (kochia (Bassia scoparia), 14 Days After Application, read-out: Visual Growth Reduction (%) KCHSC): 0 to 29%; pest or weed control at 140 g/ha (rice (Oryza sativa), 14 Days After Application, read-out: Visual Growth Reduction (%) ORYSA): 0 to 29%; pest or weed control at 140 g/ha (wheat, spring (Triticum aestivum), 14 Days After Application, read-out: Visual Growth Reduction (%) TRZAS): 0 to 29% |
| CCCCOc1c(Cl)ccc(-c2ccc(Cl)c(C(=O)OC)n2)c1F [F279, Methyl 6-(3-butoxy-4-chloro-2-fluorophenyl)-3-chloropicolinate] |  |  |  |  |  |  |  | 0 to 29% | 0 to 29% | 0 to 29% | 0 to 29% | 0 to 29% | 0 to 29% | 0 to 29% | 0 to 29% | 0 to 29% | 0 to 29% | 0 to 29% | 0 to 29% | 0 to 29% | pest or weed control at 140 g/ha [21]: 0 to 29%; pest or weed control at 140 g/ha [22]: 0 to 29% |
